Results published in patent US20180249714A1, “Liquid Termiticide Compositions of Pyrethroids and Neonicitinoids” (FMC Corporation, priority 2004, published 2018).

What was measured:
Type in all cases: in vivo
[1] = tested on: termite (Reticulitermes flavipes) workers; test: Test to Determine Termite Mortality by Applications of Combinations of Bifenthrin and Clothianadin (soil column in glass tube)
Procedure: (§1) The compositions of the present invention were tested for termiticide activity in the following manner:
Test compositions made up of TALSTAR® TERMITICIDE/INSECTICIDE and a wettable powder of clothianadin in distilled water were prepared that provided appropriate rates of application of combinations of bifenthrin and clothianadin, as well as bifenthrin and clothianadin alone.
(§2) Glass tubing, 13 mm in diameter, was then cut into 20 cm sections in sufficient quantity to conduct the test. Each […] section of tubing was marked at 5 cm, 8 cm, and 18 cm distances from one end of the tube designated as the bottom. Each section of tubing was packed with a sandy soil (3% wt/wt moisture content) by first placing a section of a 1 cm diameter wooden dowel into the bottom of the glass tube up to the 8 cm marking, then introducing approximately 2 cm of soil into the other end of the tube designated as the top. The soil was then gently packed into the tube from the top using a second section of the 1 cm diameter wooden dowel. The process was repeated using 2 cm aliquots of soil until the soil level was adjacent to the 18 cm marking, thereby providing a column of soil 10 cm in height. An agar plug, which was formed in a section of the 13 mm diameter glass tubing of the type used to conduct these tests, was cut into 3 cm sections. A 3 cm section of agar was then gently pushed into the bottom of each tube containing the soil until the agar plug firmly touched the soil at the 8 cm marking, thereby creating a 5 cm void in the bottom of each section of tubing. Following placement of the agar plugs in each section of tubing; two sections of applicator sticks cut in 6 cm lengths were inserted into the bottom end of each tube thereby forcing about 1 cm of each stick into the agar plug to hold the agar plug in place. Plastic caps, with an inside diameter of 13 mm and holes drilled in their centers, were placed on the bottom ends of each of the sections of tubing. A sharpened applicator stick was then inserted into the hole in each plastic cap through the agar plug to the intersection of the agar plug and the soil. The applicator stick was then gently removed in a rotating manner to provide a means for a free flow of liquid through the soil. Each section of tubing was then stood upright, and 0.5 mL aliquots of each suspension of bifenthrin, clothianadin or combinations thereof, as prepared above, were pipetted onto the top of the soil. Upon application of the test suspensions the top of each section of tubing was covered with a small piece of aluminum foil. The tubes were then allowed to stand for about 20 hours to allow movement of the termiticide(s) downward into the soil. After this time a plastic cap of 13 mm inside diameter was placed on the top of each section of tubing. The plastic caps with the holes drilled in their centers were removed from the bottom of each section of tubing, and a piece of 0.5 cm×4 cm filter paper was then placed between the two sections of applicator sticks. Fifty termite (Reticulitermes flavipes) workers were then inserted into the 5 cm void in the bottom of each section of tubing. New plastic caps without holes drilled in their centers were placed on the bottom of each section of tubing. The sections of tubing were then stored in an upright position, with the termites located below the soil. Termite mortality was measured at 1 hour, 2 hours, 1 day, 2 days and 7 days after treatment.

[2] = tested on: termite (Reticulitermes flavipes) workers; test: Test to Determine Termite Mortality by Applications of Combinations of Bifenthrin and Imidacloprid (soil column in glass tube)
Procedure: as §1
Test compositions made up of TALSTAR® TERMITICIDE/INSECTICIDE and a wettable powder of imidacloprid in distilled water were prepared that provided appropriate rates of application of combinations of bifenthrin and imidacloprid, as well as bifenthrin and imidacloprid alone.
as §2, with “imidacloprid” for “clothianadin”

[3] = tested on: termite (Reticulitermes flavipes) workers; test: Test to Determine Termite Mortality by Applications of Combinations of Bifenthrin and Thiamethoxam (soil column in glass tube)
Procedure: as §1
Test compositions made up of TALSTAR® TERMITICIDE/INSECTICIDE and a wettable powder of thiamethoxam in distilled water were prepared that provided appropriate rates of application of combinations of bifenthrin and thiamethoxam, as well as bifenthrin and thiamethoxam alone.
as §2, with “thiamethoxam” for “clothianadin”

[4] = Rate of Appln. 10 PPM (0.001 % by weight)
[5] = Rate of Appln. 50 PPM (0.005 % by weight)

For `Cc1c(COC(=O)[C@@H]2[C@H](/C=C(\Cl)C(F)(F)F)C2(C)C)cccc1-c1ccccc1` (racemic) [A, bifenthrin], which “Mortality Rate @ 1 Day” value [1, 4] is on record?
The value was 13%.

And the “Mortality Rate @ 1 Hour” value [1, 4]?
Its value is 0%.

And the “Mortality Rate @ 2 Days” value [1, 4]?
Its value is 24%.

What about the “Mortality Rate @ 2 Hours” value [1, 4] of the same compound?
The value was 0%.

What about the “Mortality Rate @ 7 Days” value [1, 4] of the same compound?
The value was 95%.

And the “Mortality Rate @ 1 Day” value [1, 5]?
The value was 21%.

And the “Mortality Rate @ 1 Hour” value [1, 5]?
The value was 0%.

And the “Mortality Rate @ 2 Days” value [1, 5]?
The value was 78%.

And the “Mortality Rate @ 2 Hours” value [1, 5]?
The value was 0%.

And the “Mortality Rate @ 7 Days” value [1, 5]?
Its value is 100%.

What about the “Mortality Rate @ 1 Day” value [2, 4] of the same compound?
Its value is 13%.

And the “Mortality Rate @ 1 Hour” value [2, 4]?
The value was 0%.

What about the “Mortality Rate @ 2 Days” value [2, 4] of the same compound?
Its value is 24%.

What about the “Mortality Rate @ 2 Hours” value [2, 4] of the same compound?
The value was 0%.

What about the “Mortality Rate @ 7 Days” value [2, 4] of the same compound?
The value was 95%.

And the “Mortality Rate @ 1 Day” value [2, 5]?
Its value is 21%.

What about the “Mortality Rate @ 1 Hour” value [2, 5] of the same compound?
Its value is 0%.

And the “Mortality Rate @ 2 Days” value [2, 5]?
Its value is 78%.

What about the “Mortality Rate @ 2 Hours” value [2, 5] of the same compound?
Its value is 0%.

And the “Mortality Rate @ 7 Days” value [2, 5]?
The value was 100%.

And the “Mortality Rate @ 1 Day” value [3, 4]?
Its value is 3%.

And the “Mortality Rate @ 1 Hour” value [3, 4]?
Its value is 0%.

What about the “Mortality Rate @ 2 Days” value [3, 4] of the same compound?
The value was 5%.

And the “Mortality Rate @ 2 Hours” value [3, 4]?
Its value is 0%.

What about the “Mortality Rate @ 7 Days” value [3, 4] of the same compound?
Its value is 100%.

What about the “Mortality Rate @ 1 Day” value [3, 5] of the same compound?
Its value is 10%.

And the “Mortality Rate @ 1 Hour” value [3, 5]?
The value was 0%.

What about the “Mortality Rate @ 2 Days” value [3, 5] of the same compound?
The value was 65%.

And the “Mortality Rate @ 2 Hours” value [3, 5]?
Its value is 0%.

And the “Mortality Rate @ 7 Days” value [3, 5]?
The value was 100%.
